{"source": "patent US10857112B2", "about": "“Small molecule inhibitors of RNA binding motif (RBM) proteins for the treatment of acute cellular injury” (University of Pittsburgh—Of the Commonwealth System of …, priority 2012, dated 2020)", "key": {"[1]": {"system": "primary rat cortical neurons", "assay": "STS injury, neuronal viability and cytotoxicity", "experimental": "(§1) At D.I.V. 11, ½ media was collected (conditioned media) and mixed with an equal volume fresh neurobasal media (to make the 24 hour treatment media). STS was prepared at the desired concentration in treatment media, with or without experimental drugs (AQ2S or LY294002). The remaining growth maintenance media was replaced with 100 μL, of treatment media per well of a 96-well plate (or 2 mL for a six-well plate) for 24 hours.\n(§2) The LDH Cytotoxicity Assay Kit II was purchased from Abcam (Cambridge, Mass., USA). Neurons were cultured in 96-well format and subjected to STS injury ±AQ2S for 24 hours (in 100 μL, total media volume). At 23 hours maximum LDH release (positive control) was prepared by adding 10 μL, cell lysis reagent directly to a few non-injured wells (i.e., no STS or AQ2S). At the end of the 24 hour injury period, 80 μL, of media was transferred to a new 96-well plate. Plates were spun at ˜500 g for 5 minutes. 10 μL, of cell culture treatment media was added to a new black-walled plate and advanced WST detection reagent added. The mix was incubated for ˜15 minutes and absorbance measured (OD 450 nm). Fresh culture media was used as a negative control. Cytotoxicity was calculated using the standard formula: cytotoxicity %=(sample LDH−negative-control LDH)/(maximum LDH release−negative-control LDH)×100."}, "in vitro": {"assay": "in vitro", "settings": "rat, decrease in neuronal viability, 250 nM STS alone", "experimental": "as §1, §2"}, "[2]": {"system": "primary rat cortical neurons", "assay": "H2O2 injury, neuronal viability 24 h (CellTiter-Blue)", "settings": "40 μM H2O2"}, "[3]": {"molecular_target": "T1, recombinant active caspase-3 (Homo sapiens, UniProt P42574)", "T1 construct": "The reaction mixture was combined with recombinant active caspase-3 and a DEVD-AFC probe; purchased PromoKine (Heidelberg, Germany)", "T1 sequence (P42574 29-175 limits assumed)": "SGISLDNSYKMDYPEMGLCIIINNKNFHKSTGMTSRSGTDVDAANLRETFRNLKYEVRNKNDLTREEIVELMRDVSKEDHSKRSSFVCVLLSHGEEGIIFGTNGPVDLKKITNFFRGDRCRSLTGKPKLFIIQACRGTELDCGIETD", "T1 sequence (P42574 176-277 limits assumed)": "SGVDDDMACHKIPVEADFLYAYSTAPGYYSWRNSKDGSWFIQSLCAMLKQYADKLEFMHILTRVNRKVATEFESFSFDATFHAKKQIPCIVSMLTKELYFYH", "assay": "In vitro cell-free caspase-3 drug screening assay (DEVD-AFC)", "type": "biochemical", "experimental": "An in vitro caspase drug screening kit was purchased from PromoKine (Heidelberg, Germany), and used according to the manufacturer's instructions. Briefly, all drugs were dissolved in DMSO and diluted in double-distilled water to desired concentration. The reaction mixture was combined with recombinant active caspase-3 and a DEVD-AFC probe. Active caspase-3 cleaves the DEVD-recognition sequence and releases fluorescent AFC. The amount of AFC detected is a measure of caspase-3 activity. Reactions were prepared in black-walled 96-well plates, incubated at 37° C., and AFC release measured with an AFC filter (Ex: 405 nm, Em: 495-505 nM) on a GLOMax-Multi Microplate Reader (Promega)."}, "PI3K": {"system": "PI3K", "settings": "studies in cancer cells; cited from earlier work"}, "AKT": {"system": "AKT", "assay": "Western blot of AKT activation (pAKT473)", "type": "cell-based, rat", "settings": "50 μM; baseline and 250 nM STS 6 hours", "method": "AKT is a key pro-survival kinase that is dysregulated by acute brain injury. Many diverse therapies used to prevent neuronal death activate AKT, including small molecules, endogenously derived survival proteins, and other non-pharmacology based treatments like therapeutic hypothermia. To further elucidate the mechanisms of AQ2S-mediated neuroprotection, the level of activated (phosphorylated) AKT was measured by western blot.\nNeurons used for Western blot analysis for grown in 6-well plates. Briefly, neurons were treated with experimental compounds for the indicated time/conditions. At the end of each experiment, neurons were washed in ice cold PBS and harvested in 65 μL RIPA buffer containing protease inhibitors, phosphatase inhibitors, and EDTA. Extracts were collected in 0.5 mL tubes and sonicated for 20-30 seconds. Cell extracts were then spun at 4° C./16,000 g/10 minutes and stored at −80° C. until use. Frozen extracts were thawed on ice and protein concentration measured using the BCA assay (PIERCE). […] of sample protein was loaded per well of a 7.5% SDS precast gel (Biorad), and run for 30 minutes to 1 hour at 200 V. Kaleidoscope protein standards (Biorad) were run parallel to neuron extracts. Proteins were then transferred to PDVF membranes (run at 100 V/4° C./1.5 hours). PDVF membranes were washed once in tris buffered saline (TBS) and blocked for 1 hour in tris buffered saline/tween-20 with 7.5% nonfat milk (TBS-T/milk). Blots were incubated overnight at 4° C. with primary antibodies in TBS-T/milk. Cell Signaling Technology: phospho-AKT473, AKT Total, phospho-ERK1/2, ERK Total, cleavage caspase-3. Santa Cruz Antibodies: NF-κB p50 subunit, NF-κB p65 subunit, and beta actin. Calbiochem: 4-HNE antibody. Blots were washed 3 times (5 minutes each) with TBS, and incubated with secondary antibodies for 2 hours. Invitrogen: goat anti-rabbit or goat anti-mouse. Blots were washed 3 times (5 minutes each) with TBS, and incubated for 1 minute in HRP detection solution (Amersham). Films were exposed to blots and developed (SRX-101A, Konica Minolta Medical & Graphic Inc.). Re-probed blots (e.g. beta actin, AKT total, ERK total) were stripped in western blot stripping buffer (Fischer Scientific) for 10 minutes, washed once with TBS, re-blocked in TBS-T/milk for 1 hour, and incubated overnight with new primary antibody. Films were scanned (EPSON GT 20,000), and densitometry performed using UN-SCAN-IT software (Silk Scientific)."}}}
{"compound": "CN[C@@H]1C[C@H]2O[C@@](C)([C@@H]1OC)n1c3ccccc3c3c4c(c5c6ccccc6n2c5c31)C(=O)NC4", "note": "[STS, staurosporine, reference compound]", "values": [{"measurement": "decrease in neuronal viability", "setting": "[1]; 250 nM STS alone, 24 h", "value": 71.5, "unit": "%"}, {"measurement": "cytotoxicity at 24 h, 250 nM", "setting": "in vitro", "value": 81.1, "unit": "%"}]}
{"compound": "O=C1c2c(O)cccc2C([C@@H]2O[C@H](CO)[C@@H](O)[C@H](O)[C@H]2O)c2cc(CO)cc(O)c21", "note": "(some centres unmarked) [aloin]", "values": [{"measurement": "neuronal death after H2O2 injury", "setting": "[2]; post-treatment, any concentration tested, 24 hours post-injury", "value": "ineffective at any concentration tested"}]}
{"compound": "ZVAD-fmk [reference compound]", "values": [{"measurement": "activity of recombinant caspase-3", "setting": "[3]", "value": "significantly reduced the activity of recombinant caspase-3"}, {"measurement": "cell viability, comparison of neuroprotectants", "setting": "[1]; 250 nM STS co-administered 24 hours", "value": "increased cell viability"}]}
{"compound": "Cc1cc(O)c2c(c1)C(=O)c1cc(O)cc(O)c1C2=O", "note": "[emodin, 6-methyl-1,3,8-trihydroxyanthraquinone]", "values": [{"measurement": "IC50", "setting": "PI3K", "value": 3.3, "unit": "µM"}, {"measurement": "activity of recombinant caspase-3", "setting": "[3]", "value": "not a direct caspase inhibitor in the cell-free assay"}, {"measurement": "neuronal death after H2O2 injury", "setting": "[2]; post-treatment 5 μM, 24 h", "value": "failed to protect neurons"}, {"measurement": "neuronal death after H2O2 injury", "setting": "[2]; post-treatment 25 μM, 24 h", "value": "failed to protect neurons"}, {"measurement": "neuronal death after H2O2 injury", "setting": "[2]; post-treatment 50 μM, 24 h", "value": "exacerbated cell death"}, {"measurement": "pAKT473", "setting": "AKT", "value": "abolished baseline and injury induced AKT activation"}]}
